60 compounds from a melting point compilation (Tetko et al.; mined from patent text by program, amines drawn as free bases though some values may be those of a salt) can be followed below.

The term melting point denotes the temperature, or range, at which the solid turns liquid.

On to `Cc1ccc(C)n1-c1ccc2ccc3[nH]c(=O)c(=O)n(CC(=O)Nc4ccccc4)c3c2c1`, for which the melting point is over 260 °C.
`CCc1cc(OCc2ccc(-c3ccccc3-c3nnn(C(c4ccccc4)(c4ccccc4)c4ccccc4)n3)cc2)c2nc(OC)ccc2n1` came in with a melting point of 145 to 148 °C.
`CC(C)(Oc1ccc2c(c1)CCc1c-2ccc2c1CCC2(C)C)C(=O)O` returned a melting point of 167 to 170 °C.
The compound `CCCc1c(OCCCCCC(=O)c2c(C)c(C)c(OC)c(OC)c2C)ccc(C(=O)O)c1O` had a melting point of 108 to 112 °C.
In the case of `CN(CCc1ccccc1)C(=O)Cn1cc(C(=O)O)c2cc(OCc3ccccc3)ccc21` it was 182 to 185 °C; in that of `CCCc1c(OCCCS(=O)(=O)c2ccc(C(=O)CCC(=O)O)c(F)c2)ccc(C(C)=O)c1O`, 116 to 118 °C.
In the case of `CC(C)c1nccn1N=Cc1cc(C(C)(C)C)c(O)c(C(C)(C)C)c1` it was 159 to 160 °C.
As for `COc1cc(Cl)c(NS(C)(=O)=O)cc1C(=O)NCC1CCCO1` (stereo not given), the figure is 159 to 160 °C; as for `CN(C(=O)NCCc1ccc(F)cc1)c1cccc(-c2ccc(CCC(=O)O)cc2)c1`, 146 °C.
In the case of `Cc1cccc2cc3c(=O)n(CCCN4CCCC4=O)cc(C(=O)NCCN(C)C)c3nc12`, the melting point lay within 170 to 171 °C.
In the case of `Cc1cc(C)c(S(=O)(=O)NC(COc2ccccc2)C(F)(F)F)c(C)c1` (stereo not given), the melting point was 89 to 91 °C.
As for `Nc1nc2ccccc2c2c1ncn2CCCCCCCCNC(=O)c1ccccc1`, the figure is 133 to 137 °C.
In the case of `Brc1cc2c(cn1)[nH]c1ccccc12` it was 300 °C; in that of `CC(=O)NC1Cc2ccc(OC(=O)CCl)cc2C1` (stereo not given), 106 to 108 °C; in that of `Cc1ccc(C2CC(n3cncn3)c3ccccc3N2)cc1` (stereo not given), 146 to 148 °C.
As for `COc1ccc(OCc2cccc(C(=O)O)c2)cc1Cc1cnc(N)nc1N`, the figure is 140 °C; as for `CNc1nc(-c2cccc(NC(=O)c3ccc(S(C)(=O)=O)cc3)c2)c2cc(OC)c(OC)cc2n1`, 277 to 279 °C.
On to `CNC(=O)c1cccc(NC(=O)Cc2cccc3sccc23)c1`, for which the melting point is 192 °C.
In the case of `CC(=O)c1ccc2[nH]c(C(=O)c3ccc(Cl)cc3)c(CC(=O)O)c2c1` it was 225 °C.
In the case of `CN(C)CCOc1cc(C(=O)N2CCC(N(C)CCc3ccccc3)CC2)ccc1-n1cncn1` it was 83 to 85 °C.
As for `O=C(O)CCCc1nc2nc[nH]c2c2nc(-c3ccccc3)nn12`, the figure is 280 °C.
In turn, `COc1cc(Nc2nccc(-c3ccc(N4CC(O)C4)nc3)n2)cc(OC)c1OC` yielded a melting point of 186 to 187 °C.
As for `COCC1(O)CCN(c2ccc(N3C[C@H](CNC(C)=O)OC3=O)cc2F)CC1`, the figure is 80 to 82 °C.
In the case of `CC(=O)Nc1cc(N)c(Cl)cc1NC(C)=O` it was 237 °C.
`O=C(O)COc1ccc2sc3ccccc3c(=O)c2c1` came in with a melting point of 207 to 212 °C.
As to `O=c1[nH]c(=O)n(CCCl)c2ccccc12`, the melting point lay within 189 to 192 °C.
As for `COc1ccc(N(CCCC(=O)O)C(=O)CCN(C(=O)c2ccc(Cl)cc2)c2ccc(OC)cc2)cc1`, the figure is 91 to 93 °C; as for `Cc1cc(-n2cc(-c3ccc(F)cc3F)nc2C)cc2ccc(=O)[nH]c12`, 262 to 265 °C.
As for `COc1cc2c(cc1OC)CN(CCCOc1ccc(NC(=O)c3cccc4c(=O)c5cccc(C)c5[nH]c34)c(C)c1)CC2`, the figure is 160 °C; as for `COc1cc(OCc2ccncc2)ccc1/C=C/c1cc(/C=C/c2ccc3cc[nH]c3c2)n[nH]1`, 103 to 118 °C.
As for `CCC[C@@H]1CCC[C@H](NC(=O)OC(C)(C)C)C(=O)N1`, the figure is 114 to 116 °C; as for `O=C1Cc2cc(C3=NNC(=O)C4CC34)ccc2N1` (stereo not given), 305 to 307 °C; as for `COCCn1c(C)nc2cnc3ccccc3c21`, 128 to 130 °C.
Take `CCOC(=O)c1cc(N=C=S)c(Cl)cc1Cl`: the melting point is 45 to 46 °C.
As for `C[C@@H]1CN(CC(=O)Nc2ccccc2C(F)(F)F)C[C@H](C)N1c1ncnc2sccc12`, the figure is 154 to 155 °C.
In the case of `Cc1cc(-n2ccc(OCc3ccc(C(F)(F)F)cc3)cc2=O)sc1C(=O)NCc1ccccc1` it was 225 to 227 °C; in that of `Cn1cnc2c(ccc3[nH]cc(CCN)c32)c1=O`, 279 to 285 °C; in that of `Cc1cccc(NC(=O)NCC(=O)N(c2ccccc2)C(C(=O)OC(C)(C)C)c2ccc(Cl)c(Cl)c2)c1` (racemic), 176 °C.
Consider `Cn1nc(N2c3cccc(F)c3CC2C(=O)N2CCCCCC2)ccc1=O` (stereo not given), for which the melting point fell in the range of 211 to 213 °C.
As for `CCC(=O)N(CC)c1cccc(-c2ccc3nnc(C)n3n2)c1`, the figure is 145 to 148 °C; as for `O=C1COc2cc3[nH]c(C(=O)N4CCC(Cc5ccc(F)cc5)CC4)cc3cc2N1`, 219 to 226 °C.
In the case of `CCCCc1oc2ccccc2c1C(=O)NCc1ccc2c(-c3ccc(C(C)(C)C)cc3)c(OCC#N)ccc2c1` it was 162 to 164 °C.
In the case of `Cc1ccnc(-c2cc(CO)ccn2)c1` it was 110 to 112 °C; in that of `CCCc1nc2c(N)nc3ccccc3c2n1CCCCCC(N)=O`, 210 to 211 °C; in that of `COC(=O)c1cc(CBr)cc(C2(C#N)CCC2)c1`, 93.9 to 94.6 °C.
The compound `CCOC(=O)c1c(Cl)c2cccnc2n(Cc2ccccc2)c1=O` displayed a melting point of 109 °C.
Turning to `COc1ccc(C(Cc2ccc(NC(=O)OC(C)(C)C)cc2)c2ccccc2)cc1OC1CCCC1` (stereo not given), the melting point came out at 123 °C.
As for `Cc1cccc(C)c1NC(=O)NO`, the figure is 192 to 193 °C; as for `O=C(O)c1cccc(OCC(=O)C23CC4CC(CC(C4)C2)C3)c1`, 156 °C; as for `COc1ccc(C(=O)Nc2ccccc2)cc1NCc1cc(Cl)cc(Cl)c1`, 164 to 165 °C.
As for `COC(=O)C(C)(C)OCc1oc(-c2ccc(Cl)cc2)nc1C`, the figure is 88 to 90 °C; as for `NC(=O)C(=C1CSc2ccccc2N1)c1ccc(Cl)cc1`, 188 to 191 °C.
In the case of `COc1cc(N)c(OC)c(OC)c1OC` it was 99 to 100 °C; in that of `CCNCC1CN(c2c(F)cc3c(=O)c(C(=O)O)cn(C4CC4)c3c2F)CCO1` (stereo not given), 210 to 213 °C.
`COc1ccc(C(=O)Nc2ccccc2)cc1NCc1ccccc1` gave a melting point of 164 to 165 °C.
In the case of `COc1ccc(Cl)cc1C(=O)NCCC1CCN(S(=O)(=O)NC(=S)NC2CCCCC2)CC1` it was 146 to 148 °C; in that of `COc1ccc2nc(NC(=O)C(CC3CCCC3)c3ccc(S(=O)(=O)NCc4ccco4)cc3)sc2n1` (stereo not given), 244 to 247 °C; in that of `CCCCCCCCCCCCCCCCCCOc1cc(OC(=O)C(c2ccccc2)c2ccccc2)cc(C(=O)OCc2ccccc2)c1`, 47 to 49 °C.
As for `COC(=O)c1sc(C)cc1C`, the figure is 98 to 101 °C; as for `CC(C)(C)OC(=O)C(C(=O)c1ccc(NS(C)(=O)=O)cc1Cl)C(=O)C1CC1` (stereo not given), 137 to 140 °C.
